pIC50: −log10 of the molar value.
Experiments:
[1] = system: MCF7; assay: MTT cytotoxicity assay, single drugs and combinations with Lipo-DS/Cu; assay type: cell-based; conditions: Homo sapiens, MCF7, 72 h
Protocol: (§1) All cell lines were cultured in DMEM (Lonza, Wokingham, UK) supplemented with 10% FCS, 50 units/ml penicillin, 50 μg/ml streptomycin. For in vitro cytotoxicity assay, cells [5,000/well (10,000/well for MDA-MB-231PAC10)] were cultured overnight in 96-well flat-bottomed microtiter plates then exposed to drugs for 72 h and subjected to a standard MTT assay (Plumb J A, et al Cancer Res 1989; 49(16):4435-40).
(§2) The cells were then subjected to MTT analysis as described above. […] The combination index (CI) was determined by mutually exclusive equations.

[2] = system: T47D; assay: as above; assay type: cell-based; conditions: Homo sapiens, 72 h
Protocol: as §1, §2

[3] = system: MDA-MB-231; assay: as above; assay type: cell-based; conditions: Homo sapiens, MDA-MB-231, 72 h
Protocol: as §1, §2

[4] = Stability in plasma; assay type: in vitro ADME; conditions: after 25 hours
[5] = Stability in whole blood; assay type: in vitro ADME; conditions: after 5 hours
[6] = cited from earlier work
[7] = system: breast cancer cell lines; assay: MTT cytotoxicity assay in breast cancer cell lines; conditions: CuCl2 (10 μM) containing medium, 72 hours
Protocol: After 72 hours, the viability of the treated cells was determined by MTT assay.
The viability was determined by MTT assay.
as §1
The cells were then subjected to MTT analysis as described above.

[8] = system: S180 sarcoma; assay: S180 sarcoma growth in mice; assay type: in vivo; conditions: S180 sarcoma bearing mice; DS 30 mg/kg oral, CuCl2 3 mg/kg oral
Protocol: An S180 mouse sarcoma (FIGS. 6A-6C) and MDA-MB-231 breast cancer cells (1×10^6) (FIG. 6D-6F) were subcutaneously injected into the rare frank of BALB/c and CD1 Nu/Nu mice respectively (S180: n=5; MDA-MB-231: n=6).
Five-week-old female athymic CD1 nude mice used in this study were housed under pathogen-free conditions. Human MDA-MB-231 breast cancer or mouse S180 sarcoma cells (1×10^6) were injected s.c. at one flank of the mice. Tumour volume (V) was determined by the equation: V=(L×W^2)×0.5, where L is the length and W is the width of the tumour. When xenografts reached volumes of ˜200 mm^3, the mice showing tumours were randomly grouped for the following treatments. The first day of drug treatment was designated as day 1.
Five groups (5 mice/group) were set up for mice with S180 sarcoma: 1. control, No treatment; 2. […] DS, non-encapsulated DS 30 mg/kg dissolved in vegetable oil, oral administration; 5. DS/Cu: DS 30 mg/kg oral and CuCl2 3 mg/kg oral.
The animals were subjected to different treatments when their tumours reached 2 mm in diameter. The drugs were administrated on Monday, Wednesday and Friday for two successive weeks. […] For the combination treatment groups, CuCl2 were administered in the morning.

Row | Structure (SMILES) | pIC50 [1] | pIC50 [2] | pIC50 [3] | remaining in plasma [4] | remaining in whole blood [5] | blood concentration ([6]; after oral administration of a 500 mg dose) | half-life in the blood stream ([6]; degraded by glutathione reductase system in erythrocytes) | cytotoxicity to BC cell lines [7] | in vivo anticancer effect [8]
1 | Nc1ccn([C@@H]2O[C@H](CO)[C@@H](O)C2(F)F)c(=O)n1 [GEM alone, gemcitabine] | 7.66 | 7.46 | 7.91 |  |  |  |  |  | 
2 | CC(=O)O[C@H]1C(=O)[C@@]2(C)[C@H]([C@H](OC(=O)c3ccccc3)[C@]3(O)C[C@H](OC(=O)[C@H](O)[C@@H](NC(=O)c4ccccc4)c4ccccc4)C(C)=C1C3(C)C)[C@]1(OC(C)=O)CO[C@@H]1C[C@@H]2O [Pac alone, paclitaxel] | 8.37 | 8.59 | 8.03 |  |  |  |  |  | 
3 | COc1cccc2c1C(=O)c1c(O)c3c(c(O)c1C2=O)C[C@@](O)(C(=O)CO)C[C@@H]3O[C@H]1C[C@H](N)[C@H](O)[C@H](C)O1 [Dox alone, doxorubicin] | 6.36 | 6.80 | 6.75 |  |  |  |  |  | 
4 | CCN(CC)C(=S)SSC(=S)N(CC)CC [DS, disulfiram] |  |  |  | about 15% | about 10% | below the limit of detection | 4 min | comparable cytotoxicity | not detected

Source: patent US20140037715A1, “DISULFIRAM FORMULATION AND USES THEREOF” (UNIVERSITY OF WOLVERHAMPTON, priority 2010, published 2014)
